Data as given in patent publication US20260217701A1, “SELECTIVE BET INHIBITORS AND USES THEREOF” (Tay Therapeutics Limited, priority 2022, published 2026).
“And” between values parts separate entries of the source, which are not always exact repeats. Identical values can stand only once.

Assay: Rat PK study #3 (ABBV-744 IV 1 mg/kg and PO 5 mg/kg)
Type: in vivo, SD rats
Design: Tmax: unit: h
Conditions: for concentration at 0.033 h: male, Sprague-Dawley, rat, plasma, iv
Method: For the third rat pharmacokinetic study, the pharmacokinetics of ABBV-744 were assessed in male SD rats for comparison to Compound A. ABBV-744 was prepared in a formulation of 5% DMSO, 40% PEG-400, and 55% Milli-Q water (see Table 2D for formulation) and delivered to animals orally (PO) at a dose of 5 mg/kg, or intravenously (IV) at a dose of 1 mg/kg. Animals in each group (n=3) were then monitored over a 24-hour period.
Blood samples (~0.2 mL) were collected according to a schedule (IV administration: 0.033, 0.083, 0.25, 0.5, 1, 2, 4, and 8 h following the initial dosing; PO administration: 0.083, 0.25, 0.5, 1, 2, 4, 8, and 24 h following the initial dosing) by jugular vein by cannulation except for the dosing vein (for IV group), and EDTA-K2 was used as anticoagulant. Within 30 minutes of collection, the samples were centrifuged at approximately 4000 times g-force for 5 minutes at 4° C. to obtain blood plasma. The plasma samples were immediately divided into two aliquots (~75 µL each), transferred to a cryogenic vial, and stored in a freezer at −75±15° C. prior to analysis.
The concentration of ABBV-744 in plasma samples was determined by liquid chromatography-mass spectrometry (LC-MS/MS) using a Shimadzu HPLC(DGU-405; LC-40D XS CN; SIL-40C XSCN; Plate Changer CN; CTO-40C CN; and CBM-40 CN) and an AB API 5500+LC/MS/MS instrument. Samples were analyzed on an Agilent Poroshell Bonus RP 2.7 μm (50×2.1 mm) column. Solution A in the mobile phase was 95% water (0.1% formic acid) and solution B was 95% acetonitrile in water (0.1% formic acid), injection volume was 6 μL, and flow rate was 0.6 mL/min.
To prepare samples for analysis, serial concentrations were prepared by diluting the stock solution of analyte with a 50% acetonitrile in water solution. 5 μL working solutions (5, 10, 20, 50, 100, 500, 1000, 5000, and 10000 ng/mL) were added to 50 μL of the blank SD rat plasma to achieve calibration standards of ~0.5 to 1000 ng/ml (0.5, 1, 2, 5, 10, 50, 100, 500, and 1000 ng/ml) in a total volume of 55 μL. Five quality control samples at 1 ng/ml, 2 ng/ml, 5 ng/ml, 50 ng/mL, and 800 ng/ml for plasma were prepared independently of those used for the calibration curves. These QC samples were prepared on the day of analysis in the same way as calibration standards.
55 μL of standards, 55 μL of QC samples and 55 μL of unknown samples (50 μL of unknown rat plasma with 5 µL of blank solution) were added to 200 µL of acetonitrile containing IS mixture (verapamil) for precipitating protein respectively. The samples were then vortexed for 30 s. After centrifugation at 4° C., 3900 rpm for 15 min, the supernatant was diluted 3 times with water. 6 μL of diluted supernatant was injected into the LC/MS/MS system for quantitative analysis.

[1] = SD rats, IV 1 mg/kg, DMSO/PEG-400/Milli-Q water formulation, individual animals, 1 mg/kg
[2] = SD rats, IV 1 mg/kg, DMSO/PEG-400/Milli-Q water formulation, mean of 3 animals
[3] = SD rats, PO 5 mg/kg, DMSO/PEG-400/Milli-Q water formulation, individual animals, 5 mg/kg

CCNC(=O)c1cc2c(-c3cc(C(C)(C)O)ccc3Oc3c(C)cc(F)cc3C)cn(C)c(=O)c2[nH]1 [ABBV-744]
exposure above the free EC50 BD2 BRD4 (5 mg/kg dose): minimal
Clinical observations (IV 1 mg/kg and PO 5 mg/kg): No clinical observations were noted
Plasma Concentration (SD rats, IV 1 mg/kg, DMSO/PEG-400/Milli-Q water formulation, 0.033 h, individual animals, 1 mg/kg): 484 ng/mL and 489 ng/mL
Plasma Concentration (SD rats, IV 1 mg/kg, DMSO/PEG-400/Milli-Q water formulation, 0.083 h, individual animals, 1 mg/kg): 308 ng/mL and 353 ng/mL
Plasma Concentration (SD rats, IV 1 mg/kg, DMSO/PEG-400/Milli-Q water formulation, 0.25 h, individual animals, 1 mg/kg): 267 ng/mL and 289 ng/mL
Plasma Concentration (SD rats, IV 1 mg/kg, DMSO/PEG-400/Milli-Q water formulation, 0.5 h, individual animals, 1 mg/kg): 217 ng/mL and 202 ng/mL
Plasma Concentration (SD rats, IV 1 mg/kg, DMSO/PEG-400/Milli-Q water formulation, 1 h, individual animals, 1 mg/kg): 147 ng/mL and 158 ng/mL
Plasma Concentration (SD rats, IV 1 mg/kg, DMSO/PEG-400/Milli-Q water formulation, 2 h, individual animals, 1 mg/kg): 116 ng/mL and 110 ng/mL
Plasma Concentration (SD rats, IV 1 mg/kg, DMSO/PEG-400/Milli-Q water formulation, 4 h, individual animals, 1 mg/kg): 55.9 ng/mL and 54.8 ng/mL
Plasma Concentration (SD rats, IV 1 mg/kg, DMSO/PEG-400/Milli-Q water formulation, 8 h, individual animals, 1 mg/kg): 18.3 ng/mL and 15.0 ng/mL
AUCInf [1]: 750 ng·h/mL and 728 ng·h/mL
AUC_%Extrap_obs [1]: 5.41% and 8.03% and 6.23%
AUClast [1]: 690 ng·h/mL and 683 ng·h/mL
C0 [1]: 652 ng/mL and 606 ng/mL
Cl_obs [1]: 24.9 mL/min/kg and 22.2 mL/min/kg and 22.9 mL/min/kg
MRTInf_obs [1]: 2.88 h and 2.61 h
T1/2 [1]: 2.28 h and 2.09 h
Vss_obs [1]: 3.69 L/kg and 3.84 L/kg and 3.59 L/kg
AUC_%Extrap_obs [2]: 6.56%
Cl_obs [2]: 23.3 mL/min/kg
Vss_obs [2]: 3.71 L/kg
Plasma Concentration (SD rats, PO 5 mg/kg, DMSO/PEG-400/Milli-Q water formulation, 0.083 h, individual animals, 5 mg/kg): 0.00 ng/mL and 1.03 ng/mL and 3.81 ng/mL
Plasma Concentration (SD rats, PO 5 mg/kg, DMSO/PEG-400/Milli-Q water formulation, 0.25 h, individual animals, 5 mg/kg): 2.95 ng/mL and 6.42 ng/mL and 48.5 ng/mL
Plasma Concentration (SD rats, PO 5 mg/kg, DMSO/PEG-400/Milli-Q water formulation, 0.5 h, individual animals, 5 mg/kg): 7.91 ng/mL and 21.1 ng/mL and 100 ng/mL
Plasma Concentration (SD rats, PO 5 mg/kg, DMSO/PEG-400/Milli-Q water formulation, 1 h, individual animals, 5 mg/kg): 16.7 ng/mL and 41.0 ng/mL and 118 ng/mL
Plasma Concentration (SD rats, PO 5 mg/kg, DMSO/PEG-400/Milli-Q water formulation, 2 h, individual animals, 5 mg/kg): 31.9 ng/mL and 78.0 ng/mL and 157 ng/mL
Plasma Concentration (SD rats, PO 5 mg/kg, DMSO/PEG-400/Milli-Q water formulation, 4 h, individual animals, 5 mg/kg): 40.6 ng/mL and 101 ng/mL and 239 ng/mL
Plasma Concentration (SD rats, PO 5 mg/kg, DMSO/PEG-400/Milli-Q water formulation, 8 h, individual animals, 5 mg/kg): 54.6 ng/mL and 70.6 ng/mL and 214 ng/mL
Plasma Concentration (SD rats, PO 5 mg/kg, DMSO/PEG-400/Milli-Q water formulation, 24 h, individual animals, 5 mg/kg): 0.909 ng/mL and 1.09 ng/mL and 4.52 ng/mL
AUClast [3]: 739 ng·h/mL and 1175 ng·h/mL and 3265 ng·h/mL
Cmax [3]: 54.6 ng/mL and 101 ng/mL and 239 ng/mL
F [3]: 22.1% and 35.2% and 97.7%
Tmax [3]: 4.00 h
F (SD rats, PO 5 mg/kg, DMSO/PEG-400/Milli-Q water formulation, mean of 3 animals): 51.7%
concentration at 0.033 h (1 mg/kg, SD rats, IV 1 mg/kg, DMSO/PEG-400/Milli-Q water formulation, 0.033 h, individual animals): 475 ng/mL
concentration at 0.033 h (1 mg/kg, SD rats, IV 1 mg/kg, DMSO/PEG-400/Milli-Q water formulation, 0.033 h, mean of 3 animals): 483 ng/mL
